Test results published in ChEMBL document CHEMBL5620412, “Discovery of benzofuran-2-carboxylic acid derivatives as lymphoid tyrosine phosphatase (LYP) inhibitors for cancer immunotherapy” (Eur J Med Chem, 2023).
Active and inactive are the calls of the source. The calls are words filed in the database; no cut-off is given here.

Assays:
Jurkat T = assay: Activation of TCR signaling in human Jurkat T cells assessed as increase in LCK phosphorylation preincubated with compound for 1 hrs followed by anti-CD3 stimulation and measured after 45 mins by immunoblot analysis; assay type: cell-based; details: filed as activator, time 105.0 min
[1] = Toxicity in C57BL/6J syngenic mouse implanted with mouse MC-38 cells assessed as effect on body weight at 50 mg/kg, IG administered twice daily for 14 days; assay type: organism-based; details: in vivo, po, 336 h, time 14 day
MC-38 [2] = assay: Antitumor activity against mouse MC-38 cells implanted in syngenic C57BL/6J mouse model assessed as tumor growth inhibition at 50 mg/kg, IG administered twice daily for 14 days relative to control; assay type: functional; details: MC-38, po, 336 h, time 14 day, read-out: TGI
MC-38 [3] = assay: Antitumor immunity against mouse MC-38 cells implanted in syngenic C57BL/6J mouse model assessed as increase in CD4+ T cell proportion in tumor at 50 mg/kg, IG administered twice daily for 14 days by flow cytometric analysis; assay type: functional, organism-based; details: time 14.0 day
MC-38 [4] = assay: Antitumor immunity against mouse MC-38 cells implanted in syngenic C57BL/6J mouse model assessed as increase in Ki67 positive CD4+ T cells at 50 mg/kg, IG administered twice daily for 14 days by Ki67 staining based flow cytometric analysis; assay type: functional, organism-based; details: time 14.0 day
MC-38 [5] = assay: Antitumor immunity against mouse MC-38 cells implanted in syngenic C57BL/6J mouse model assessed as increase in Ki67 positive CD8+ T cells at 50 mg/kg, IG administered twice daily for 14 days by Ki67 staining based flow cytometric analysis; assay type: functional, organism-based; details: time 14.0 day
MC-38 [6] = assay: Antitumor immunity against mouse MC-38 cells implanted in syngenic C57BL/6J mouse model assessed as increase in NKT cell proportion at 50 mg/kg, IG administered twice daily for 14 days; assay type: functional, organism-based; details: time 14.0 day
MC-38 [7] = assay: Antitumor immunity against mouse MC-38 cells implanted in syngenic C57BL/6J mouse model assessed as increase in IFN-gamma expression at 50 mg/kg, IG administered twice daily for 14 days; assay type: functional, organism-based; details: time 14.0 day
MC-38 [8] = assay: Antitumor immunity against mouse MC-38 cells implanted in syngenic C57BL/6J mouse model assessed as increase in M1 tumor associated macrophage proportion in tumor at 50 mg/kg, IG administered twice daily for 14 days by flow cytometric analysis; assay type: functional, organism-based; details: time 14.0 day
MC-38 [9] = assay: Antitumor immunity against mouse MC-38 cells implanted in syngenic C57BL/6J mouse model assessed as inhibition of M2 polarization of tumor associated macrophage in tumor at 50 mg/kg, IG administered twice daily for 14 days by flow cytometric analysis; assay type: functional, organism-based; details: time 14.0 day
MC-38 [10] = assay: Antitumor immunity against mouse MC-38 cells implanted in syngenic C57BL/6J mouse model assessed as increase in M1 tumor associated macrophage proportion in spleen at 50 mg/kg, IG administered twice daily for 14 days by flow cytometric analysis; assay type: functional, organism-based; details: time 14.0 day
MC-38 [11] = assay: Antitumor immunity against mouse MC-38 cells implanted in syngenic C57BL/6J mouse model assessed as upregulation of PD-L1 expression in macrophages at 50 mg/kg, IG administered twice daily for 14 days by flow cytometric analysis; assay type: functional, organism-based; details: time 14.0 day
MC-38 [12] = assay: Antitumor immunity against mouse MC-38 cells implanted in syngenic C57BL/6J mouse model assessed as upregulation of PD1 expression in CD4+ T cells at 50 mg/kg, IG administered twice daily for 14 days by flow cytometric analysis; assay type: functional, organism-based; details: time 14.0 day
MC-38 [13] = assay: Antitumor immunity against mouse MC-38 cells implanted in syngenic C57BL/6J mouse model assessed as upregulation of PD1 expression in CD8+ T cells at 50 mg/kg, IG administered twice daily for 14 days by flow cytometric analysis; assay type: functional, organism-based; details: time 14.0 day
[14] = Upregulation of PD-L1 expression in mouse MC-38 cells at 10 uM incubated for 48 hrs by flow cytometric analysis (reference value: 23.3%); assay type: functional
[15] = molecular target: T1, Tyrosine-protein phosphatase non-receptor type 22 (Homo sapiens) (UniProt Q9Y2R2); assay: Reversible binding affinity to N-terminal His-tagged LYP catalytic domain (1 to 294 residues) (unknown origin) expressed in Escherichia coli BL21 (DE3) cells using pNPP as substrate incubated for 10 to 90 mins by absorbance based assay; details: time 10-90 min
T1 sequence (whole entry): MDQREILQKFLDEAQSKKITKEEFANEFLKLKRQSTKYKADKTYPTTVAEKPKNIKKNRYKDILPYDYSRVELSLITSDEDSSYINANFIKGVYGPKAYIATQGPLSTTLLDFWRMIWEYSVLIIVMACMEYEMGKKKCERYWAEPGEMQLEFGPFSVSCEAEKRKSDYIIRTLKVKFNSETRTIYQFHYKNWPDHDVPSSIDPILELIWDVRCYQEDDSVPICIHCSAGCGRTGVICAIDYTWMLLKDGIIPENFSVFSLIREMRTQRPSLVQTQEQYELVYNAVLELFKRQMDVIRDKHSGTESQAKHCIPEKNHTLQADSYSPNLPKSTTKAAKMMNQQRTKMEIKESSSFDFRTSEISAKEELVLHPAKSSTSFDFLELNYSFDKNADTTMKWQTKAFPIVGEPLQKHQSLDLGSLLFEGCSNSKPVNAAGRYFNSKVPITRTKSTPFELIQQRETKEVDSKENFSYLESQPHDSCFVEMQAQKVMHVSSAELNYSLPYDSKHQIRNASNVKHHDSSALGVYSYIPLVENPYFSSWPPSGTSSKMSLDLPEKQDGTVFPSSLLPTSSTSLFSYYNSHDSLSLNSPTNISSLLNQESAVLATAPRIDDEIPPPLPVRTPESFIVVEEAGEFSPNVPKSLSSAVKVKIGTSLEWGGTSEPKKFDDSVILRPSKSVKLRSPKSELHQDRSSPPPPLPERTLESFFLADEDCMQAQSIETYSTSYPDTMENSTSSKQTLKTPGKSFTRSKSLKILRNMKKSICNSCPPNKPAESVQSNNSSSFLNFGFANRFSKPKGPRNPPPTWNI

Compound: COc1ccc(-c2ccc(CN(c3ccc4oc(C(=O)O)cc4c3)S(=O)(=O)c3ccc(Cl)c([N+](=O)[O-])c3)cc2)cc1
- Activity (Jurkat T): Active
- Activity [1]: Non-Toxic
- inhibition in vivo at 50 mg/kg (MC-38 [2]): 69.6%
- Activity (MC-38 [3]): Active
- Activity (MC-38 [4]): Active
- Activity (MC-38 [5]): Active
- Activity (MC-38 [6]): Active
- Activity (MC-38 [7]): Active
- Activity (MC-38 [8]): Active
- Activity (MC-38 [9]): Active
- Activity (MC-38 [10]): Active
- Activity (MC-38 [11]): Active
- Activity (MC-38 [12]): Active
- Activity (MC-38 [13]): Active
- Activity [14]: 37.2%

Compound: O=C(O)c1cc2cc(N(Cc3ccc(OCc4ccccc4)cc3)S(=O)(=O)c3ccc(-c4ccccc4)cc3)ccc2o1
- Activity [15]: Active
- Activity (Jurkat T): Active
- Activity [1]: Non-Toxic
- inhibition in vivo at 50 mg/kg (MC-38 [2]): 65%
- Activity (MC-38 [3]): Active
- Activity (MC-38 [4]): Active
- Activity (MC-38 [5]): Active
- Activity (MC-38 [6]): Active
- Activity (MC-38 [7]): Active
- Activity (MC-38 [8]): Active
- Activity (MC-38 [9]): Active
- Activity (MC-38 [10]): Active
- Activity (MC-38 [11]): Active
- Activity (MC-38 [12]): Active
- Activity (MC-38 [13]): Active
- Activity [14]: 46.1%
